Data as given in patent US20190353644A1, “PROFILE ANALYSIS OF CELL POLARITY” (Wake Forest University Health Sciences, priority 2018, published 2019).

Legend:
[1] = test system: HMT-3522 S1 mammary epithelial cells acini; assay: Radial profile (RP) analysis of ZO-1 distribution in acini; format: cell-based
Protocol: The concept of radial profile (RP) analysis of epithelial polarity was tested. A macro script and two plugins for the open image analysis software ImageJ (imagej.nih.gov/ij/) were developed. Subsequently, computer code was translated for the MATLAB® computing platform and improvements were made. This new code is referred to as the RadialProfiler algorithm. MATLAB® is a more robust and versatile computing platform that allows important improvement to the approach. In particular, MATLAB® can easily process entire image folders in batch using looping functions. Batch processing has been included in the new MATLAB® version of the RP analysis that enables automated analyses of series of images. The code was designed to analyze two-channel fluorescence microscopy images. The first channel corresponds to DAPI staining of cell nuclei, whereas the second channel corresponds to an apical polarity marker (e.g., ZO-1, Par3, or actin) detected by immunofluorescence. […] Initially, two plugins were developed to compare two approaches to quantify apical polarity: (1) an analysis of the RP distribution of the signals and (2) the computation of the moment of inertia (MOI). […]
Fluorescent signals of polarity markers in 3D cell cultures were scored visually for apical localization using an Olympus IX83 epifluorescence microscope equipped with a 60× oil immersion objective (NA=1.35). […]

apical polarity = details: Yue et al., Biophys. J. 102:1215 (2012); cited from earlier work
[2] = test system: mammary epithelial cell line stably expressing GFP-ZO-1; assay: Live cell imaging of GFP-ZO-1 mammary epithelial cell line; format: cell-based; details: leptin treatment
Source text: Immunostaining techniques have certain limitations, including (1) time consumption, (2) costs of reagents, and (3) poor time resolution. An alternative approach has been developed based on live cell imaging. Immunostaining for polarity markers is replaced by expression of polarity marker proteins tagged with a fluorescent protein (e.g., GFP-ZO-1). A mammary epithelial cell line stably expressing GFP-ZO-1 has been generated and characterized (FIGS. 9A-9B). The cell line retains apical-basal polarity (which is disturbed by leptin treatment) and expresses the recombinant marker at physiological levels. As a more flexible alternative to genetically encoded fluorescent markers of polarity, a nontoxic actin dye compatible with live cell imaging (SiR-actin) has been used. Cells are stained for 1 h with a mix of SiR-actin and Hoechst (DNA dye) before imaging. Similar results were obtained with this approach compared to the fixed, immunostaining approach described in EXAMPLE 1.

[3] = test system: HMT-3522 S1 mammary epithelial cells acini; assay: Visual scoring of apical polarity markers in 3D acini cultures (conventional methods); format: cell-based; details: elevated levels of leptin; measured with conventional methods (Tenvooren et al.)
Source text: Non-neoplastic HMT-3522 S1 mammary epithelial cells were obtained from Dr. Mina Bissell (Lawrence Berkeley Laboratory) and propagated between passages 54 and 60 in H14 medium. Acinar differentiation was achieved by culturing the cells in 3D on top of a layer of Matrigel matrix (Corning) in chambered slides (Millipore), as described (10).
Fluorescent signals of polarity markers in 3D cell cultures were scored visually for apical localization using an Olympus IX83 epifluorescence microscope equipped with a 60× oil immersion objective (NA=1.35). At least 100 acini were scored per condition in each experiment. Alternatively, fluorescence images were taken with the CMOS camera (Hamamatsu, ORCA-Flash4.0) on this microscope, using a 10× (NA=0.3) objective. The ImageJ script was used to extract acini from DAPI images and to calculate the radial distribution of the signals. 150-450 acini were analyzed per condition.

live S1 cell acini = assay: Live cell imaging of acini stained with SiR-actin; format: cell-based; details: leptin treatment as in EXAMPLE 3
Source text: RadialProfiler can be applied to quantify epithelial markers detected by immunofluorescence (as described in Tenvooren et al., Oncogene (2019)), or to quantify cortical actin labeled in live acini with the SiR-actin dye (Cytoskeleton Inc.). DAPI and Hoechst are used to counterstain cell nuclei in fixed and live experiments, respectively.
For imaging, an automated IX83 microscope (Olympus) equipped with a motorized ultrasonic stage and a TruFocus Z drift compensation module was used. For RadialProfiler analyses, images are taken with either 10× (NA=0.3) or 20× (NA=0.45) air lenses, using a sCMOS camera (ORCA-Flash4.0, Hamamatsu). The RadialProfiler software was also tested with images acquired using different imaging systems, including a high content imager (Perkin Elmer Operetta CLS). RadialProfiler and the underlying approach to analyze polarity are agnostic to the imaging system. Fields of view are chosen either in an automated fashion or based on nuclear signals (DAPI or Hoechst) to avoid bias. For live cell analyses, acini are maintained at 37° C. and 5% CO2 using a stage-top incubator (Tokai Hit). The minimal resolution needed depends on the number of radial terraces used by RadialProfiler. […] It was determined that using 5-10 bins that are 2 pixels wide yields accurate measurements. […]

lipopolysaccharide [LPS, reference compound]
polarity score ([1]; breast acini exposed to LPS, FIG. 8F): decrease in the polarity score

omega-6 fatty acids
apical polarity (apical polarity): disrupted

leptin
apical-basal polarity of GFP-ZO-1 cell line [2]: disturbed
apical polarity [3]: loss of apical polarity
averaged RP curves and integrated values (ZO-1 radial distribution) ([1]; acini treated 72 h with vehicle or leptin (100 ng/ml), FIG. 8C, P<0.0001): distinct for the two treatments
apical SiR-actin signal (live S1 cell acini): loss of apical SiR-actin signal
